US20260000656A1, “ANTIFUNGAL AGENTS WITH ENHANCED ACTIVITY IN ACIDIC PH” (Scynexis, Inc., priority 2017, published 2026)
Converted amounts (≈) assume the structure as drawn. Where two headings read alike, the source gives them in different places.

Test system: C. glabrata isolates
Assay: Broth microdilution susceptibility (CLSI M27-A3) at different medium pH
Format: cell-based, Candida glabrata
Settings: Nakaseomyces glabratus, 24 h; for MIC50: read-out: MIC50; for MIC90: read-out: MIC90
Experimental: Ten strains each of C. glabrata and C. albicans vaginal isolates were tested. The strains were obtained from recent clinical trial patients with vulvovaginal candidiasis (VVC) prior to treatment. Candida strains were obtained from the Mycology Reference Library (MRL) at Case Western Reserve University School of Medicine, Ohio, United States.
Susceptibility testing was performed using a broth microdilution method, according to CLSI M27-A3 guidelines (CLSI. 2008. Reference Method for Broth Dilution Antifungal Susceptibility Testing of Yeasts; Approved Standard—Third Edition. Clinical and Laboratory Standards Institute, CLSI document M27-A3). Antifungals and concentrations tested were SCY-078 and micafungin (both at concentrations within the range of 0.015 to 8 μg/ml) and fluconazole (at concentrations within the range of 0.125 to 64 μg/ml). A 0.1-ml C. albicans and C. glabrata inoculum of 0.5-2.5×10^3 blastospores/ml in RPMI 1640 medium was added to each microdilution well. ATCC strains of Candida parapsilosis and Candida krusei QC isolates were also included concurrently to ensure quality control. Antifungal susceptibility testing was carried out for each isolate in RPMI 1640 at pH 7 (to mimic RPMI medium used in testing the susceptibility of yeast by the CLSI M-27A3 document), pH 5.7, and pH 4.5 (to mimic the pH of the vaginal cavity) by adjusting the pH of the media using NaOH or HCl. […] Agents Chemother., 43: 1383-1386 (1999).
[…] SCY-078 powder was manufactured by Avista, Laboratories, NC. Micafungin and fluconazole were sourced from LGM Pharma.

[1] = pH 7, 50% inhibition, pH 7.0, 24 h, 10 vaginal isolates
[2] = pH 7, 100% inhibition, pH 7.0, 24 hours, 10 isolates

Structure (SMILES): CC(C)[C@@H](C)[C@@]1(C)CC[C@]2(C)[C@H]3CC[C@@H]4[C@@]5(COC[C@]4(C)[C@@H](OC[C@](C)(N)C(C)(C)C)[C@H](n4ncnc4-c4ccncc4)C5)C3=CC[C@@]2(C)[C@@H]1C(=O)O [SCY-078]
- MIC (pH 5.72, C. glabrata MRL 32626, pH 5.72, 24 hours, read-out: MIC (50% inhibition)): 0.5 µg/mL (≈ 0.685 µM)
- MIC (pH 5.72, C. glabrata MRL 32626, pH 5.72, 24 hours, read-out: MIC (100% inhibition)): 1 µg/mL (≈ 1.37 µM)
- MIC (pH 5.72, C. glabrata MRL 32993, pH 5.72, 24 hours, read-out: MIC (50% inhibition)): 0.5 µg/mL (≈ 0.685 µM)
- MIC (pH 5.72, C. glabrata MRL 32993, pH 5.72, 24 hours, read-out: MIC (100% inhibition)): 1 µg/mL (≈ 1.37 µM)
- MIC (pH 5.72, C. glabrata MRL 33204, pH 5.72, 24 hours, read-out: MIC (50% inhibition)): 0.5 µg/mL (≈ 0.685 µM)
- MIC (pH 5.72, C. glabrata MRL 33204, pH 5.72, 24 hours, read-out: MIC (100% inhibition)): 1 µg/mL (≈ 1.37 µM)
- MIC (pH 5.72, C. glabrata MRL 33960, pH 5.72, 24 hours, read-out: MIC (50% inhibition)): 0.5 µg/mL (≈ 0.685 µM)
- MIC (pH 5.72, C. glabrata MRL 33960, pH 5.72, 24 hours, read-out: MIC (100% inhibition)): 1 µg/mL (≈ 1.37 µM)
- MIC (pH 5.72, C. glabrata MRL 33961, pH 5.72, 24 hours, read-out: MIC (50% inhibition)): 0.5 µg/mL (≈ 0.685 µM)
- MIC (pH 5.72, C. glabrata MRL 33961, pH 5.72, 24 hours, read-out: MIC (100% inhibition)): 1 µg/mL (≈ 1.37 µM)
- MIC (pH 5.72, C. glabrata MRL 34339, pH 5.72, 24 hours, read-out: MIC (50% inhibition)): 0.5 µg/mL (≈ 0.685 µM)
- MIC (pH 5.72, C. glabrata MRL 34339, pH 5.72, 24 hours, read-out: MIC (100% inhibition)): 1 µg/mL (≈ 1.37 µM)
- MIC (pH 5.72, C. glabrata MRL 34407, pH 5.72, 24 hours, read-out: MIC (50% inhibition)): 0.5 µg/mL (≈ 0.685 µM)
- MIC (pH 5.72, C. glabrata MRL 34407, pH 5.72, 24 hours, read-out: MIC (100% inhibition)): 1 µg/mL (≈ 1.37 µM)
- MIC (pH 5.72, C. glabrata MRL 34576, pH 5.72, 24 hours, read-out: MIC (50% inhibition)): 0.5 µg/mL (≈ 0.685 µM)
- MIC (pH 5.72, C. glabrata MRL 34576, pH 5.72, 24 hours, read-out: MIC (100% inhibition)): 1 µg/mL (≈ 1.37 µM)
- MIC50 [1]: 1 µg/mL (≈ 1.37 µM)
- MIC90 [1]: 1 µg/mL (≈ 1.37 µM)
- MIC50 [2]: 1 µg/mL (≈ 1.37 µM)
- MIC90 [2]: 2 µg/mL (≈ 2.74 µM)
- MIC (pH 7, C. glabrata MRL 32075, pH 7.0, 24 hours, read-out: MIC (50% inhibition)): 0.5 µg/mL (≈ 0.685 µM)
- MIC (pH 7, C. glabrata MRL 32075, pH 7.0, 24 hours, read-out: MIC (100% inhibition)): 1 µg/mL (≈ 1.37 µM)
- MIC (pH 7, C. glabrata MRL 32232, pH 7.0, 24 hours, read-out: MIC (50% inhibition)): 1 µg/mL (≈ 1.37 µM)
- MIC (pH 7, C. glabrata MRL 32232, pH 7.0, 24 hours, read-out: MIC (100% inhibition)): 1 µg/mL (≈ 1.37 µM)
- MIC (pH 7, C. glabrata MRL 32626, pH 7.0, 24 hours, read-out: MIC (50% inhibition)): 0.5 µg/mL (≈ 0.685 µM)
- MIC (pH 7, C. glabrata MRL 32626, pH 7.0, 24 hours, read-out: MIC (100% inhibition)): 1 µg/mL (≈ 1.37 µM)
- MIC (pH 7, C. glabrata MRL 32993, pH 7.0, 24 hours, read-out: MIC (50% inhibition)): 0.5 µg/mL (≈ 0.685 µM)
- MIC (pH 7, C. glabrata MRL 32993, pH 7.0, 24 hours, read-out: MIC (100% inhibition)): 1 µg/mL (≈ 1.37 µM)
- MIC (pH 7, C. glabrata MRL 33204, pH 7.0, 24 hours, read-out: MIC (50% inhibition)): 1 µg/mL (≈ 1.37 µM)
- MIC (pH 7, C. glabrata MRL 33204, pH 7.0, 24 hours, read-out: MIC (100% inhibition)): 1 µg/mL (≈ 1.37 µM)
- MIC (pH 7, C. glabrata MRL 33960, pH 7.0, 24 hours, read-out: MIC (50% inhibition)): 0.5 µg/mL (≈ 0.685 µM)
- MIC (pH 7, C. glabrata MRL 33960, pH 7.0, 24 hours, read-out: MIC (100% inhibition)): 1 µg/mL (≈ 1.37 µM)
- MIC (pH 7, C. glabrata MRL 33961, pH 7.0, 24 hours, read-out: MIC (50% inhibition)): 1 µg/mL (≈ 1.37 µM)
- MIC (pH 7, C. glabrata MRL 33961, pH 7.0, 24 hours, read-out: MIC (100% inhibition)): 1 µg/mL (≈ 1.37 µM)
- MIC (pH 7, C. glabrata MRL 34339, pH 7.0, 24 hours, read-out: MIC (50% inhibition)): 1 µg/mL (≈ 1.37 µM)
- MIC (pH 7, C. glabrata MRL 34339, pH 7.0, 24 hours, read-out: MIC (100% inhibition)): 1 µg/mL (≈ 1.37 µM)
- MIC (pH 7, C. glabrata MRL 34407, pH 7.0, 24 hours, read-out: MIC (50% inhibition)): 1 µg/mL (≈ 1.37 µM)
- MIC (pH 7, C. glabrata MRL 34407, pH 7.0, 24 hours, read-out: MIC (100% inhibition)): 2 µg/mL (≈ 2.74 µM)
- MIC (pH 7, C. glabrata MRL 34576, pH 7.0, 24 hours, read-out: MIC (50% inhibition)): 1 µg/mL (≈ 1.37 µM)
- MIC (pH 7, C. glabrata MRL 34576, pH 7.0, 24 hours, read-out: MIC (100% inhibition)): 2 µg/mL (≈ 2.74 µM)
